In one series the test system is EGFR-specific CAR. In words: CAR expression by flow cytometry after editing (anti-idiotype antibody staining). The series is classed as cell-based, human. From the text:
FIGS. 4A-4C provide flow cytometry graphs and bar graphs. FIGS. 4A and 4B depict CAR expression after editing A2A, HIF1α, and A2B target sites in CAR-T cells using guides. FIG. 4A provides flow cytometry graphs depicting CAR expression controls for electroporation (EP) only and untransduced (UTD) CAR-T cells. FIG. 4B are flow cytometry graphs depicting CAR expression of edited A2AR target sites using guides g145, g155, and Cas9 (top), edited HIF1α target sites using guides g168, g170, and g173 (middle), and edited A2B target sites using guides g221, g222, and Cas9 (bottom). FIG. 4C is a bar graph quantifying the CAR expression observed in the flow cytometry graphs of FIG. 4B. Consistent 60% CAR expression was seen across all guides and editing targets. There was no observed impact of editing on CAR expression.
FIG. 19A provides a bar graph showing base editing of the ADORA2A gene quantified via next generation sequencing (NGS). […] FIG. 19D provides a schematic providing an overview of a process for generating multiplex base edited EGFR-targeting ARC T cells. In FIG. 19B, each set of three bars correspond to, from left-to-right, TCR, HLA Class I, and HLA Class II. In FIGS. 19A-19D, “Base Editing Guide 1” […] indicates cells edited using the base editor ABE8.20 in combination with the guide sgRNA145 (see Table 1A), “Base Editing Guide 2” (BE2) indicates cells edited using the base editor ABE8.20 in combination with the guide sgRNA155, and “CRISPR Guide” indicates cells edited using a CRISPR guide and editor known to be effective in knocking out expression of A2AR.
FIG. 25 provides a set of flow cytometry scatter plots showing chimeric antigen receptor expression in EGFR-targeting CAR-T cells edited to knock out expression of the indicated polypeptides (i.e., A2AR, PD1, TGFbRII, or combinations thereof). At the end of culturing, T cells were stained with an anti-idiotype antibody. […] was knocked out using the guide TSBTx2043, PD1 expression was knocked out using the guide TSBTx025, TGFbR expression was knocked out using the guide TSBTx5277, and “Triple KO” cells were editing using all three guides (see Table 1B).

In the next series the test system is SKOV3 or H226 cells. In words: IFNγ production of EGFR CAR-Ts with HIF1α edits co-cultured with tumor cells in 1% O2. The format is cell-based. Particulars: 1 to 1 E:T ratio, 1% O2, 48 hours, vs unedited EGFR CAR-T cells, FIG. 10. The procedure: FIG. 10 provides bar graphs depicting IFNγ production (pg/mL) after EGFR CAR-Ts with HIF1α edits were co-cultured at 1 to 1 E:T ratio with either SKOV3 or H226 cells in 1% O2 for 48 hours. HIF1α was edited using guides g170 and g173. Electroporation (EP) only was used as a control. EGFR CAR-T cells with HIF1α knockout edits produced more cytokine under hypoxic stress than unedited EGFR CAR-T cells.

The test system of the next series is pCREB. In words: pCREB expression (flow cytometry) in A2AR knockout T cells treated with CADO. The series is classed as cell-based. Particulars: 30 μM CADO vs DMSO, FIG. 14. The protocol:
FIG. 14 provides histograms depicting expression of pCREB in A2AR knockout T cells using guides g145 and g155. Cas9 and Electroporation (EP) only were used as controls. In the plots, the darker-grey histogram corresponds to DMSO and the lighter-grey histogram corresponds to 30 μM CADO. […] Throughout the figures, the term “CADO” represents 2-chloroadenosine.
FIGS. 20A-20E provide flow cytometry histograms, bar graphs, a plot, and images showing adenosine-resistant CAR-T cells (CAR-T cells) were protected from adenosine-mediated suppression in vitro. […] H266 cells expressing GFP were plated in ultra-low adherent 96-well plates and incubated at 36° C. for 3 days to allow for spheroid formation. Then, untransduced cells (UTD), ARC T cells, or CAR T cells expressing TCR, HLA Class I, HLA Class II, and ADAR were added to the wells at a 1:2 effector to target ratio (E:T) with 0 μM adenosine. Plates were then placed in an Incucyte live imaging analysis instrument and cytotoxicity was measured via reduction in GFP+ spheroid volume over time. […]
Background: In flow cytometry, cells or beads pass a laser one at a time.

In another series the test system is IFNγ production. The experiment in a line: IFNγ production of A2AR knockout T cells in the presence of CADO / extracellular adenosine. The series is classed as cell-based. Particulars: normalized to 0 μM CADO (DMSO only), FIG. 15. The procedure: FIG. 15 presents bar graphs depicting IFNγ production after 48 hours in A2AR knockout T cells using guides g145 and g155. The data shown in FIG. 15 is normalized to IFNγ production in 0 μM CADO (DMSO only treatment). A2A knockout protected CAR-T cells from adenosine-mediated cytokine suppression.
FIGS. 20A-20E provide flow cytometry histograms, bar graphs, a plot, and images showing adenosine-resistant CAR-T cells (CAR-T cells) were protected from adenosine-mediated suppression in vitro. […] H266 cells expressing GFP were plated in ultra-low adherent 96-well plates and incubated at 36° C. for 3 days to allow for spheroid formation. Then, untransduced cells (UTD), ARC T cells, or CAR T cells expressing TCR, HLA Class I, HLA Class II, and ADAR were added to the wells at a 1:2 effector to target ratio (E:T) with 0 μM adenosine. Plates were then placed in an Incucyte live imaging analysis instrument and cytotoxicity was measured via reduction in GFP+ spheroid volume over time. In FIGS. 19A-19D, “BE KO1” indicates cells edited using the base editor ABE8.20 in combination with the guide sgRNA145 (see Table 1A), “BE KO2” indicates cells edited using the base editor ABE8.20 in combination with the guide sgRNA155, and “CRISPR KO” indicates cells edited using a CRISPR guide and editor known to be effective in knocking out expression of A2AR.

Where [1] appears, read: after editing A2A, HIF1α, and A2B target sites in CAR-T cells, FIG. 4C.

For “ACACAGGUAUUGCACUGCAC (chemistry not given here) [sgRNA170, guide RNA spacer; HIF1α; ABE; Ex6 SA (Pos 5)]”, the CAR expression in the series with EGFR-specific CAR (setting [1]) is reported as 60%. Besides, the IFNγ production result in the series with SKOV3 or H226 cells is listed as “more cytokine”.

Regarding “CUGCUCACCGGAGCGGGAUG (chemistry not given here) [sgRNA145, guide RNA spacer; A2AR; CBE; Ex1 SD (Pos 8)]”, the CAR expression in the series on EGFR-specific CAR (setting [1]) is on record as 60%. Moreover, the “upregulation of downstream pCREB” value in the series with pCREB was “no upregulation”. Moreover, in the series on IFNγ production, the “IFNγ production after 48 hours (adenosine-mediated cytokine suppression)” value was “protected”. Consider “GGCCAUGCUGCUGGAGACAC (chemistry not given here) [sgRNA221, guide RNA spacer; A2BR; ABE; Ex1 START (Pos 5)]”, for which the CAR expression in the series on EGFR-specific CAR (setting [1]) turned out to be 60%. In the case of “TSBTx5277: guide used with Cas12b to knock out TGFbR2 (guide CCCAGAGCACCAGAGCCAUGGA; listed as RNA, chemistry not given here)”, in the series with EGFR-specific CAR (EGFR-targeting CAR-T cells with A2AR, PD1, TGFbRII knock-out or combinations, anti-idiotype antibody, FIG. 25), the CAR expression entry is reported as “No differences”. For the substance “UCACCUGAGCGGGACACAGA (chemistry not given here) [sgRNA222, guide RNA spacer; A2BR; Ex1 SD (Pos 4); used with CBE]”, the CAR expression in the series on EGFR-specific CAR (setting [1]) is reported as 60%. On to “UCUCCCCAGGUACAAUGGCU (chemistry not given here) [sgRNA155, guide RNA spacer; A2AR; ABE (ABE8.20); Ex2 SA (Pos 8)]”, for which, in the series on EGFR-specific CAR (setting [1]), the CAR expression amounted to 60%. Moreover, in the series with pCREB, the “upregulation of downstream pCREB” value is given as “no upregulation”. Also, the “IFNγ production after 48 hours (adenosine-mediated cytokine suppression)” value in the series on IFNγ production is recorded as “protected”. On to “UGUUUACAGUUUGAACUAAC (chemistry not given here) [sgRNA168, guide RNA spacer; HIF1α; ABE; Ex4 SA (Pos 8)]”, for which the CAR expression in the series on EGFR-specific CAR (setting [1]) is on record as 60%. Turning to “UUUCAGAACUACAGUUCCUG (chemistry not given here) [sgRNA173, guide RNA spacer; HIF1α; ABE (ABE8.20); Ex13 SA (Pos 5)]”, the CAR expression in the series with EGFR-specific CAR (setting [1]) was 60%. Also, the IFNγ production entry in the series on SKOV3 or H226 cells is on record as “more cytokine”.

The record behind these values is patent US20240325533A1, “MODIFIED IMMUNE CELLS AND METHODS OF USING THE SAME” (Beam Therapeutics Inc., priority 2021, published 2024).
